In patent US10596082B2, “Oral care compositions and methods of use” (Colgate-Palmolive Company, priority 2017, dated 2020):

Test system: microorganisms
Assay: Bactericidal testing of toothpaste final base made with contaminated PCC slurry (plate count)
Settings: final toothpaste base with previously contaminated PCC slurry, plated on MLA, 30° C.
Method: In a stainless steel bucket, water and humectant was first added and stirred using an overhead stirrer (EUROSTAR 200, IKA, North Carolina, USA) equipped with a cowles disperser. Mixing was started at 500 rpm for 1 minute. Gum and salts (buffering agents, sweetener, fluoride) were added next and the resulting solution was mixed at 1,000 rpm for 20 minutes to obtain a gel phase.
A fraction of the gel phase sample was transferred to a new stainless steel bucket. Using an overhead stirrer (EUROSTAR 200, IKA) equipped with a 4-bladed propeller stirrer, mixing was performed at 750 rpm for 1 minute. Next, to the mixture was added water, PCC slurry (previously contaminated for the study purpose), surfactant, and other ingredients (benzyl alcohol/caprylyl glycol or phenethyl alcohol/caprylyl glycol) and mixed for 15 minutes to obtain the final base.
Sample preparation was made by mixing 10 grams of the final base (see Example 1) with 90 mL of diluent (TAT broth (catalog #298410, BD) supplemented with 0.3% NaCl and 4% Tween) to achieve a 1:10 dilution. Serial dilutions of 10^−1 to 10^−6 were made in neutralizing broth (TAT supplemented with 0.3% NaCl), allowed to incubate for 0, 2, 4, 6, 24 and 48 hours, and plated in 15-20 mL of melted Modified Letheen Agar (MLA). Plates were swirled to allow complete dispersion and allowed to solidify. Solidified plates were then inverted and incubated at 30° C. for at least 48 hours. Colonies were counted using a Quebec colony counter (Phoenix Luferco, Brazil). Table 2 presents the study results, showing numbers of microorganisms per gram of product (CFU/) at different time points.

## OCc1ccccc1 [Benzyl alcohol (0.30%), Benzyl alcohol]
  numbers of microorganisms per gram of product, 0 hr: 13,300 CFU/
  numbers of microorganisms per gram of product, 2 hr: 18,250 CFU/
  numbers of microorganisms per gram of product, 4 hr: 13,000 CFU/
  numbers of microorganisms per gram of product, 6 hr: 8,000 CFU/
  numbers of microorganisms per gram of product, 24 hr: 3,650 CFU/
  numbers of microorganisms per gram of product, 48 hr: 125 CFU/

## CCCCCCC(O)CO (stereo not drawn) [Caprylyl glycol (0.20%), Caprylyl glycol]
  numbers of microorganisms per gram of product, 0 hr: 13,300 CFU/
  numbers of microorganisms per gram of product, 2 hr: 14,000 CFU/
  numbers of microorganisms per gram of product, 4 hr: 1,200 CFU/
  numbers of microorganisms per gram of product, 6 hr: 2,100 CFU/
  numbers of microorganisms per gram of product, 24 hr: 435 CFU/
  numbers of microorganisms per gram of product, 48 hr: 80 CFU/
